Here are results for 19 molecules from US20250313560A1, “Novel bicyclic benzylamido pyridine derivatives as SOS1 inhibitors” (Boehringer Ingelheim International GmbH, priority 2024, published 2025).

The IC50 is the concentration at which inhibition is half-maximal. By inhibition is commonly meant the drop in the measured response relative to a control, in per cent.

In series [1] the test system is ERK phosphorylation in NCI-H358 SOS2 KO cells (KRAS G12C). Nature of the series: Erk phosphorylation assay. It is filed as cell-based, human. To be noted: Homo sapiens, NCI-H358, NCI-H358 SOS2 KO cells, EGF stimulated; average of at least two measurements; read-out: pERK IC50. In short, it runs like this: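 NCI-H358 SOS2 KO cells (KRAS G12C) in DMEM/2% FBS were pretreated 50 min with compound, then stimulated with EGF (approx. 8 ng/mL) for 10-15 min. pERK1/2 (Thr202/Tyr204) measured in lysates by AlphaLISA SureFire; IC50 from variable-slope fit, averaged over at least two measurements.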

The target of another series is P450 3A4 (Homo sapiens (Human), UniProt P08684). Kind of series: Cytochrome P450 isoenzyme inhibition assay (P450 3A4, midazolam). It is filed as in vitro ADME. To be noted: human liver microsomes, Midazolam as substrate; read-out: CYP3A4 inhibition IC50. In short, it runs like this:
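Midazolam (5 μM) hydroxylation by human liver microsomes (0.1 mg/ml) in 0.1 M TRIS with 5 mM MgCl2, started with 1 mM NADPH. Five compound concentrations in duplicate, e.g. top 50 μM with 1:4 dilutions. Metabolite quantified by LC-MS/MS against internal standard; IC50 from inhibition relative to no-compound control.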
(In general: Liver microsomes are vesicles of endoplasmic reticulum, rich in cytochrome P450 enzymes.)

For another series, the system named is human hepatocytes. Kind of series: Metabolic stability in human hepatocytes. To be noted: 1 μM test compound, 50% human serum, percentage of liver blood flow.
The target of a further series is SOS1 and KRAS G12D (Homo sapiens (Human), UniProt Q07889). Nature of the series: KRAS::SOS1 AlphaScreen binding assay (KRAS G12D). To be noted: average of at least two measurements. On the technique in general: Alpha assays give light when donor and acceptor beads are brought close together.
The target of another series is SOS1 and KRAS G12C (Homo sapiens (Human), UniProt Q07889). Kind of series: KRAS::SOS1 AlphaScreen binding assay (KRAS G12C). To be noted: average of at least two measurements.
The target in a further series is CYP3A4 (Homo sapiens (Human), UniProt P08684). Nature of the series: Mechanism-based inhibition of CYP3A4 assay (MBI 3A4). Format: in vitro ADME. To be noted: human, human liver microsomes, probe midazolam 15 μM (hydroxy-midazolam formation), midazolam substrate, hydroxy-midazolam formation after 30 min preincubation relative to 0 min, read-out: MBI inhibition % ctrl. [%] with MDZ. A digest of the protocol:
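Human liver microsomes (0.2 mg/mL) were preincubated with compound at 0, 5 or 25 μM plus 1 mM NADPH for 0, 10 or 30 min, then diluted 1:10 and incubated 10 min with 15 μM midazolam. Hydroxy-midazolam was measured by LC/MS-MS; readout is formation after 30 min relative to 0 min preincubation (%).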

Sequence of CYP3A4 (P08684 whole entry): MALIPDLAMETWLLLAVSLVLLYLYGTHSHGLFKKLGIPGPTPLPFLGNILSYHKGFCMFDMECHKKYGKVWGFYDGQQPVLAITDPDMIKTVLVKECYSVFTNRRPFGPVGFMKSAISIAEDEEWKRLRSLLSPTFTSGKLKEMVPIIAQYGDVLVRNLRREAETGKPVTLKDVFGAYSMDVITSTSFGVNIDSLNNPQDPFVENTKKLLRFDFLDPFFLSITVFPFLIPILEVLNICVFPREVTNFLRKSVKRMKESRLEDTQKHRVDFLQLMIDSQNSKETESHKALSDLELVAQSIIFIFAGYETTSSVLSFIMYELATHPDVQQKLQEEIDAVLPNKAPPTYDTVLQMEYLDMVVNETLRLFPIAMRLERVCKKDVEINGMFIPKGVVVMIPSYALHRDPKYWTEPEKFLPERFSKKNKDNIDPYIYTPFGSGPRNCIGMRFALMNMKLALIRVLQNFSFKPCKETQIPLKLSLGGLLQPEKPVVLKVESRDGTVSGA
Sequence of P450 3A4 (P08684 whole entry): as above
Sequence of SOS1 and KRAS G12D (Q07889 564-1049, stated change not applied): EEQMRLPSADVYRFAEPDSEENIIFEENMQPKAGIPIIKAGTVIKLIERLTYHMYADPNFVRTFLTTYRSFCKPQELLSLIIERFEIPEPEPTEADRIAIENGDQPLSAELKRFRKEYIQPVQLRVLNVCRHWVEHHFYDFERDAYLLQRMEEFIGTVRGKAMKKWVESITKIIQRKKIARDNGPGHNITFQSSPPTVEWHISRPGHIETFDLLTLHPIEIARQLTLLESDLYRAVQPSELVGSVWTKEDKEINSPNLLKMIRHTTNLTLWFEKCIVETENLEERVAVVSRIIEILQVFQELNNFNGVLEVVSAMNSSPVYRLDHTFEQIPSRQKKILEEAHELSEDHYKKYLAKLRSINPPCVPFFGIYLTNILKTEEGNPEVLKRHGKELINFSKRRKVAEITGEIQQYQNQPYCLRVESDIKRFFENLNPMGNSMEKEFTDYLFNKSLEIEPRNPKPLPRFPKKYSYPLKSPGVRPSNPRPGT
Sequence of SOS1 and KRAS G12C (Q07889 564-1049, stated change not applied): as above

As to `C[C@@H](NC(=O)c1cc([C@]2(O)CC[C@@H](N3CC[C@H](F)C3)CC2)c2ncnn2c1)c1cccc(C(F)F)c1F` [Example E66], the IC50 in series [1] is 152 nM; at P450 3A4 it was over 50000 nM; on SOS1 and KRAS G12D it was 79 nM; on SOS1 and KRAS G12C, 74 nM. Moreover, in the series with human hepatocytes, the “Hepatic clearance - QH[%] in human hepatocytes” value (“Hepatic clearance - QH[%]” for short) was 32%. In addition, the inhibition at 30 min on CYP3A4 amounted to 81%.
Take `C[C@@H](NC(=O)c1cc([C@H]2CC[C@H](N3CCC[C@H](O)C3)CC2)c2ncnn2c1)c1cccc(C(F)(F)F)c1F` [Example E67]: the IC50 in series [1] was 46 nM; on P450 3A4, over 50000 nM; at SOS1 and KRAS G12D, 33 nM; at SOS1 and KRAS G12C, 33 nM. Moreover, the “Hepatic clearance - QH[%]” value with human hepatocytes is listed as 10%. The inhibition at 30 min on CYP3A4 turned out to be 95%.
`C[C@@H](NC(=O)c1cc([C@H]2CC[C@H](N3CCC[C@@H](O)C3)CC2)c2ncnn2c1)c1cccc(C(F)(F)F)c1F` [Example E68]: the half-inhibitory concentration (IC50) in series [1] was 116 nM; at P450 3A4, over 50000 nM; at SOS1 and KRAS G12D, 27 nM; at SOS1 and KRAS G12C, 36 nM. In addition, in the series on human hepatocytes, the “Hepatic clearance - QH[%]” value is reported as 12%. The inhibition at 30 min on CYP3A4 was determined as 91%.
On to `C[C@@H](NC(=O)c1cc([C@H]2CC[C@H](N3CC[C@H](O)C3)CC2)c2ncnn2c1)c1cccc(C(F)(F)F)c1F` [Example E69], for which the IC50 in series [1] was 218 nM; on P450 3A4, over 50000 nM; on SOS1 and KRAS G12D, 23 nM; on SOS1 and KRAS G12C, 28 nM. In addition, the “Hepatic clearance - QH[%]” value with human hepatocytes is given as under 4%. For the same molecule, the inhibition at 30 min on CYP3A4 is 85%.
Turning to `C[C@@H](NC(=O)c1cc([C@]2(O)CC[C@@H](N3CC[C@H](F)C3)CC2)c2ncnn2c1)c1cccc(C(F)(F)F)c1F` [Example E71], the IC50 was 196 nM in series [1]; over 50000 nM at P450 3A4; 79 nM at SOS1 and KRAS G12D; 79 nM at SOS1 and KRAS G12C. The “Hepatic clearance - QH[%]” value in the series with human hepatocytes is on record as 7%. Also, at CYP3A4, the inhibition at 30 min turned out to be 94%.
Regarding `C[C@@H](NC(=O)c1cc(N2CCC(N3CCC[C@H]3CO)CC2)c2ncnn2c1)c1cccc(C(C)(F)F)c1F` [Example E72], the IC50 in series [1] was 92 nM; on P450 3A4, over 50000 nM; on SOS1 and KRAS G12D, 32 nM; at SOS1 and KRAS G12C, 33 nM. The “Hepatic clearance - QH[%]” value with human hepatocytes worked out at 21%. Also, the inhibition at 30 min at CYP3A4 is 98%.
Turning to `C[C@@H](NC(=O)c1cc(N2CCC(N3CC[C@@H](CO)C3)CC2)c2ncnn2c1)c1cccc(C(C)(F)F)c1F` [Example E73], the IC50 in series [1] was 136 nM; at P450 3A4, over 50000 nM; at SOS1 and KRAS G12D it was 64 nM; on SOS1 and KRAS G12C it was 64 nM. Further, in the series on human hepatocytes, the “Hepatic clearance - QH[%]” value is 24%. Further, the inhibition at 30 min at CYP3A4 was found to be 103%.
`C[C@@H](NC(=O)c1cc(N2CCC3(CCCN3C)CC2)c2ncnn2c1)c1cccc(C(C)(F)F)c1F` [Example E74]: the half-maximal inhibitory concentration (IC50) was 206 nM in series [1]; over 50000 nM at P450 3A4; 21 nM at SOS1 and KRAS G12D; 26 nM on SOS1 and KRAS G12C. For the same molecule, the “Hepatic clearance - QH[%]” value with human hepatocytes is 8%. Further, at CYP3A4, the inhibition at 30 min was found to be 89%.
For `CO[C@@H]1CCN(C2CCN(c3cc(C(=O)N[C@H](C)c4cccc(C(F)(F)F)c4F)cn4cnnc34)CC2)C1` [Example E75], the half-inhibitory concentration (IC50) was 408 nM in series [1]; over 50000 nM at P450 3A4; 60 nM on SOS1 and KRAS G12D; 65 nM at SOS1 and KRAS G12C. The “Hepatic clearance - QH[%]” value in the series with human hepatocytes is 9%. For the same molecule, the inhibition at 30 min on CYP3A4 was 99%.
`C[C@@H](NC(=O)c1cc(N2CCC3(CCCN3C)CC2)c2nncn2c1)c1cccc(C(F)(F)F)c1F` [Example E77]: the IC50 is 202 nM in series [1]; over 50000 nM on P450 3A4; 22 nM at SOS1 and KRAS G12D; 27 nM on SOS1 and KRAS G12C. Besides, the “Hepatic clearance - QH[%]” value in the series on human hepatocytes is reported as under 4%. At CYP3A4, the inhibition at 30 min was found to be 88%.
As for `Cc1nc2c(N3CCC4(CCCN4)CC3)cc(C(=O)N[C@H](C)c3cccc(C(F)(F)F)c3F)cn2n1` [Example E78], the IC50 was 223 nM in series [1]; over 50000 nM at P450 3A4; 41 nM on SOS1 and KRAS G12D; 43 nM at SOS1 and KRAS G12C. Further, the “Hepatic clearance - QH[%]” value in the series on human hepatocytes is recorded as 5%. Also, at CYP3A4, the inhibition at 30 min was 103%.
Take `Cc1nnc2c(N3CCC4(CCCN4C)CC3)cc(C(=O)N[C@H](C)c3cccc(C(F)(F)F)c3F)cn12` [Example E79]: the IC50 in series [1] was 106 nM; at P450 3A4, over 50000 nM; on SOS1 and KRAS G12D, 14 nM; on SOS1 and KRAS G12C, 20 nM. The “Hepatic clearance - QH[%]” value with human hepatocytes stood at 8%. Moreover, the inhibition at 30 min at CYP3A4 amounted to 90%.
In the case of `Cc1c([C@@H](C)NC(=O)c2cc(N3CCC4(CCCN4C)CC3)c3nnc(C)n3c2)cccc1C(F)(F)F` [Example E80], the IC50 in series [1] is 213 nM; at P450 3A4, over 50000 nM; at SOS1 and KRAS G12D, 27 nM; on SOS1 and KRAS G12C, 37 nM. In addition, the “Hepatic clearance - QH[%]” value in the series on human hepatocytes is recorded as under 4%. In addition, at CYP3A4, the inhibition at 30 min was determined as 88%.
With `C[C@@H](NC(=O)c1cc([C@H]2CC[C@H](N3CCC[C@H](O)C3)CC2)c2nncn2c1)c1cccc(C(F)F)c1F` [Example E81], the IC50 in series [1] was 258 nM; at P450 3A4, over 50000 nM; at SOS1 and KRAS G12D it was 24 nM; on SOS1 and KRAS G12C it was 25 nM. In the series on human hepatocytes, the “Hepatic clearance - QH[%]” value stood at 15%. Further, the inhibition at 30 min on CYP3A4 is 93%.
Turning to `C[C@@H](NC(=O)c1cc(C2=CCC(N3CCC[C@H](O)C3)CC2)c2nncn2c1)c1cccc(C(F)F)c1F` (stereo partly drawn) [Example E82], the concentration for half-maximal inhibition (IC50) was 90 nM in series [1]; over 50000 nM on P450 3A4; 15 nM on SOS1 and KRAS G12D; 20 nM at SOS1 and KRAS G12C. In the series on human hepatocytes, the “Hepatic clearance - QH[%]” value stood at 5%. For the same molecule, the inhibition at 30 min on CYP3A4 turned out to be 92%.
Take `Cc1nc2c([C@H]3CC[C@H](N4CCCC4)CC3)cc(C(=O)N[C@H](C)c3cccc(C(F)F)c3F)cn2n1` [Example E84]: the IC50 was 174 nM in series [1]; over 50000 nM on P450 3A4; 37 nM at SOS1 and KRAS G12D; 38 nM on SOS1 and KRAS G12C. Also, in the series with human hepatocytes, the “Hepatic clearance - QH[%]” value turned out to be 10%. Moreover, on CYP3A4, the inhibition at 30 min came to 103%.
For the molecule `Cc1nc2c([C@H]3CC[C@H](N4CCC[C@H](O)C4)CC3)cc(C(=O)N[C@H](C)c3cccc(C(F)F)c3F)cn2n1` [Example E85], the IC50 in series [1] is 158 nM; on P450 3A4, over 50000 nM; on SOS1 and KRAS G12D, 24 nM; on SOS1 and KRAS G12C, 37 nM. Also, the “Hepatic clearance - QH[%]” value in the series with human hepatocytes is listed as 14%. Further, the inhibition at 30 min on CYP3A4 was 102%.
Turning to `C[C@@H](NC(=O)c1cc(N2CCC3(CCCN3C)CC2)n2ncnc2c1)c1cccc(C(F)(F)F)c1F` [Example E86], the IC50 was 174 nM in series [1]; over 50000 nM at P450 3A4; 44 nM on SOS1 and KRAS G12D; 61 nM on SOS1 and KRAS G12C. Besides, the “Hepatic clearance - QH[%]” value in the series on human hepatocytes is listed as 15%. For the same molecule, the inhibition at 30 min on CYP3A4 was determined as 96%.
For the molecule `C[C@@H](NC(=O)c1cc(N2CCC(N3CCC(O)C(C)(O)C3)CC2)c2ncnn2c1)c1cccc(C(F)(F)F)c1F` (stereo partly drawn) [Example cis-E29], the concentration for half-maximal inhibition (IC50) was 261 nM in series [1]; over 50000 nM at P450 3A4; 46 nM at SOS1 and KRAS G12D; 56 nM at SOS1 and KRAS G12C. The “Hepatic clearance - QH[%]” value in the series with human hepatocytes amounted to 24%. Moreover, the inhibition at 30 min at CYP3A4 was 95%.
